Where two headings read alike, the source gives them in different places.
What was measured:
BT474 cells = assay: MTT cell viability assay, BT474 breast cancer cells; type: cell-based; settings: for IC50: read-out: BT474 IC50; for Selectivity BT474: values match MCF-10A IC50 / BT474 IC50, formula not given
Experimental: (§1) In vitro toxicity of the compounds described herein were tested on two breast cancer cell lines, MDA-MB-231 and BT-474. These cell lines represent triple negative and HER2-positive breast cancers, respectively. BT474 cell and MDA-MB-231 cells were maintained in DMEM media supplemented with 10% v/v FBS. On reaching confluency (1×10^6 cells/mL in a 25 mL flask), 1×10^6 cells were seeded in 25 mL of fresh supplemented media. The cells were incubated under humidified air containing 5% CO2 at 37° C. Cell density was kept below 1×10^6 cells/mL to ensure exponential growth and to avoid differentiation. Cells were only used between passages 5 and 15 to prevent cell differentiation.
(§2) A standard MTT assay was used to determine the cell viability at 48 hr after an artemisinin derivative was added to the culture medium. Cell viability was above 95% for all experiments. The viable cell count was based on trypan blue exclusion from the cells and was performed in a hemocytometer using a light microscope. To 50 μL of cells was added 20 μL of trypan blue 0.4% solution and 30 μL D-Hanks solution was counted. During experiments cells were exposed to drug stock solutions which were made up in 100% DMSO and the final solvent concentration was 1% v/v in each incubation. Each concentration in every experiment was carried out in triplicate.
(§3) BT474 (2000 cells/100 μL) or MDA-MB-231 cells (7500 cells/100 μL) were seeded on a 96 well plate respectively, and incubated for 24 hr at 37° C. The medium was removed, and replaced it with 200 μL of the complete medium containing artemisinin derivatives. The cells were incubated for 48 hr at 37° C., the medium was removed, and replaced it with 100 μL of fresh complete medium. 10 μL of […] MTT stock solution (D-Hanks) was added to each well. After incubating for 3 hr at 37° C., formazan crystals were solubilized in 50 μL of DMSO and absorbance was measured at 570 nm with BIO-RAD model 680 microplate reader. All data were analyzed using Microsoft Excel. IC50 values were determined with Graphpad Prism 5.

MCF-10A = MCF-10A IC50; type: cell-based
MDA-MB-231 cells = assay: MTT cell viability assay, MDA-MB-231 breast cancer cells; type: cell-based; settings: for IC50: read-out: MDA MB 231 IC50; for Selectivity MDA MB 231: values match MCF-10A IC50 / MDA MB 231 IC50, formula not given
Experimental: as §1, §2, §3

NCI 60 cell lines = settings: panel of NCI 60 cell lines; cited from earlier work
[1] = test system: PCa cell lines DU 145, PC-3, C4-2, and LNCaP; assay: Cytotoxicity against a panel of four PCa cell lines; type: cell-based; settings: DU 145, PC-3, C4-2, LNCaP
Experimental: The cytotoxicity of artemisinin dimers, dimer-2Py, was evaluated against a panel of four PCa cell lines, DU 145, PC-3, C4-2, and LNCaP.

[2] = Homo sapiens, BT-474, MTT, 48 hr incubation
[3] = Homo sapiens, MDA-MB-231, MTT, 48 hr incubation

| SMILES | IC50 (BT474 cells; [2]) [µM] | IC50 (MDA-MB-231 cells; [3]) [µM] | IC50 (BT474 cells; MTT, 48 hr incubation) [µM] | Selectivity BT474 (BT474 cells) | IC50 (MCF-10A) [µM] | IC50 (MDA-MB-231 cells; MTT, 48 hr incubation) [µM] | Selectivity MDA MB 231 (MDA-MB-231 cells) | times more potent than artemisinin monomers such as artesunate (NCI 60 cell lines) | IC50 (BT474 cells; Homo sapiens, BT-474, 48 h) [µM] | IC50 (MCF-10A; Homo sapiens, MCF-10A) [µM] | IC50 (MDA-MB-231 cells; Homo sapiens, MDA-MB-231, 48 h) [µM] | times less potent than artemisinin dimer succinate (MDA-MB-231 cells; MDA-MB-231) [times] | cytotoxicity [1] |
| --- | --- | --- | --- | --- | --- | --- | --- | --- | --- | --- | --- | --- | --- |
| C[C@H]1[C@@H](CC(COC(=O)CCC(=O)O)C[C@H]2O[C@@H]3O[C@@]4(C)CC[C@H]5[C@H](C)CC[C@@H]([C@H]2C)[C@@]35OO4)O[C@@H]2O[C@@]3(C)CC[C@H]4[C@H](C)CC[C@@H]1[C@@]24OO3 (stereo partly shown) [Artemisinin dimer succinate, reference compound] |  |  | 0.1 | 210 | 21 | 0.24 | 88 | up to 500 times |  |  |  |  |  |
| C[C@H]1[C@H](OC(=O)CCC(=O)O)O[C@@H]2O[C@@]3(C)CC[C@H]4[C@H](C)CC[C@@H]1[C@@]24OO3 [Artesunate, reference compound] |  |  |  | 2.7 |  |  | 0.46 |  | 7.8 | 21 | 46 |  |  |
| COC(=O)CNC(=O)C(CC[C@H]1O[C@@H]2OC3(C)CCC4[C@H](C)CCC([C@H]1C)[C@]42OO3)N(C(=O)c1ccccc1)C(C)C (stereo partly shown) [Compound 7] | > 100 | > 100 |  |  |  |  |  |  |  | > 100 |  |  |  |
| C[C@H]1[C@@H](O)O[C@@H]2O[C@@]3(C)CC[C@H]4[C@H](C)CC[C@@H]1[C@@]24OO3 [dihydroartemisinin] |  |  |  |  |  |  |  |  |  |  |  |  | negligible activity |

More lines, main results first:

| IC50 (BT474 cells; [2]) [µM] | IC50 (MDA-MB-231 cells; [3]) [µM] | SMILES | IC50 (BT474 cells; MTT, 48 hr incubation) [µM] | Selectivity BT474 (BT474 cells) | IC50 (MCF-10A) [µM] | IC50 (MDA-MB-231 cells; MTT, 48 hr incubation) [µM] | Selectivity MDA MB 231 (MDA-MB-231 cells) | times more potent than artemisinin monomers such as artesunate (NCI 60 cell lines) | IC50 (BT474 cells; Homo sapiens, BT-474, 48 h) [µM] | IC50 (MCF-10A; Homo sapiens, MCF-10A) [µM] | IC50 (MDA-MB-231 cells; Homo sapiens, MDA-MB-231, 48 h) [µM] | times less potent than artemisinin dimer succinate (MDA-MB-231 cells; MDA-MB-231) [times] | cytotoxicity [1] |
| --- | --- | --- | --- | --- | --- | --- | --- | --- | --- | --- | --- | --- | --- |
| 6.6 | 19 | COC(=O)CNC(=O)C(CC[C@H]1O[C@@H]2OC3(C)CCC4[C@H](C)CCC([C@H]1C)[C@]42OO3)N(CCC[C@H]1O[C@@H]2OC3(C)CCC4[C@H](C)CCC([C@H]1C)[C@]42OO3)C(=O)C(F)(F)F (stereo partly shown) [Compound 6a] |  | 0.70 |  |  | 0.24 |  |  | 4.6 |  |  |  |
| 0.79 | 11 | COC(=O)CNC(=O)C(CC[C@H]1O[C@@H]2OC3(C)CCC4[C@H](C)CCC([C@H]1C)[C@]42OO3)N(CCC[C@H]1O[C@@H]2OC3(C)CCC4[C@H](C)CCC([C@H]1C)[C@]42OO3)C(=O)c1ccccc1 (stereo partly shown) [Compound 6b] |  | 6.3 |  |  | 0.45 |  |  | 5 |  |  |  |
| 5.8 | 12 | COC(=O)CNC(=O)C(CC[C@H]1O[C@@H]2OC3(C)CCC4[C@H](C)CCC([C@H]1C)[C@]42OO3)N(CCC[C@H]1O[C@@H]2OC3(C)CCC4[C@H](C)CCC([C@H]1C)[C@]42OO3)C(=O)c1cccc(OC)c1OC (stereo partly shown) [Compound 6c] |  | 0.98 |  |  | 0.48 |  |  | 5.7 |  |  |  |
| 0.88 | 12 | COC(=O)CNC(=O)C(CC[C@H]1O[C@@H]2OC3(C)CCC4[C@H](C)CCC([C@H]1C)[C@]42OO3)N(CCC[C@H]1O[C@@H]2OC3(C)CCC4[C@H](C)CCC([C@H]1C)[C@]42OO3)C(=O)c1ccc(N(C)C)cc1 (stereo partly shown) [Compound 6d] |  | 17 |  |  | 1.3 |  |  | 15 |  |  |  |
| 1.7 | 26 | COC(=O)CNC(=O)C(CC[C@H]1O[C@@H]2OC3(C)CCC4[C@H](C)CCC([C@H]1C)[C@]42OO3)N(CCC[C@H]1O[C@@H]2OC3(C)CCC4[C@H](C)CCC([C@H]1C)[C@]42OO3)C(=O)c1cnccn1 (stereo partly shown) [Compound 6e] |  | 15 |  |  | 0.96 |  |  | 25 |  |  |  |
| 0.096 | 1.2 | COC(=O)CNC(=O)C(CC[C@H]1O[C@@H]2OC3(C)CCC4[C@H](C)CCC([C@H]1C)[C@]42OO3)N(CCC[C@H]1O[C@@H]2OC3(C)CCC4[C@H](C)CCC([C@H]1C)[C@]42OO3)c1ccc([N+](=O)[O-])cc1 (stereo partly shown) [Compound 6f] |  | 490 |  |  | 39 |  |  | 47 |  | 5 |  |

From patent US9422306B2, “Artemisinin compounds and synthesis and use thereof” (University of Washington Through Its Center for …, priority 2012, dated 2016)
